The results in this text go back to US20100248390A1, “COMPOSITIONS AND METHODS FOR IDENTIFYING LIGANDS OF ODORANT RECEPTORS” (DUKE UNIVERSITY, priority 2009, published 2010).

What is called EC50 is the concentration needed to bring the measured effect to its halfway point.

Assay [1] concerns the target T1, mouse odorant receptors (ORs) (Mus musculus, UniProt Q8VGS3).
T1 construct: OR open reading frames were amplified from genomic DNA; expressed in transfected cells; host or cells: Hana3A cells, co-transfected with RTP1S, CRE-luciferase and pRL-SV40
T1 sequence (Q8VGS3 1-310): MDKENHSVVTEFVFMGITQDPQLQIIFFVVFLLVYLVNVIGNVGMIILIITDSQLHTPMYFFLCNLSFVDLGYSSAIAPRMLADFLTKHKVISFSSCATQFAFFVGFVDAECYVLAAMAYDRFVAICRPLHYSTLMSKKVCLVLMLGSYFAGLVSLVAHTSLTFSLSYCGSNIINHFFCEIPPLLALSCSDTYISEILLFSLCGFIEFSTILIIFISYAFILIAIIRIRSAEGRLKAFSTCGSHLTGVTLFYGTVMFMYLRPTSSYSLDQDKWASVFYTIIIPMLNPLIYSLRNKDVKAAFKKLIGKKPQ
As to the kind of experiment: CRE-luciferase assay of odorant receptor activation (Dual-Glo, Hana3A cells, RTP1S), dose-response EC50. It counts as cell-based. To be noted: receptor MOR180-1; read-out: log EC50 of odorant at MOR180-1 (0 = no response) (converted).

Assay [2] addresses T2, mouse odorant receptors (ORs) (Mus musculus, UniProt Q9JHB2).
T2 construct: OR open reading frames were amplified from genomic DNA; expressed in transfected cells; host or cells: Hana3A cells, co-transfected with RTP1S, CRE-luciferase and pRL-SV40
T2 sequence (Q9JHB2 1-309): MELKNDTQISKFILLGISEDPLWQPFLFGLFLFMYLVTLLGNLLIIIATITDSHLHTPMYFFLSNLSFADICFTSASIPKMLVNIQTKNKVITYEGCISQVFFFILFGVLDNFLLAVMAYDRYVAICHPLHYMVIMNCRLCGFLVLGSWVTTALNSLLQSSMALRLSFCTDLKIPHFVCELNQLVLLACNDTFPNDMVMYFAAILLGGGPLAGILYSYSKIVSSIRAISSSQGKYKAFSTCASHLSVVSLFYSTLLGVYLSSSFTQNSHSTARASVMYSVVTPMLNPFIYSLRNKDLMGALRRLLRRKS
The assay is described as above. It counts as cell-based. To be noted: receptor MOR140-1.

SMILES strings stand for the structures.

Turning to `CC(=O)Oc1ccccc1` [Phenyl acetate], the EC50 in assay [1] was 661 µM.

Turning to `CCCCCC1=C(C)CCC1=O` [Dihydroiasmone], the “log EC50 (Table 4 value), MOR140-1” value in assay [2] was −3.614.
